The conditions of data set [1]: cited from earlier work.
For data set [2], the system named is PIM-025 PDOs. Kind of data set: sensitivity of PDOs to doxorubicin after pre-treatment. Type of data set: cell-based. Particulars: pre-treatment 5d, then doxorubicin 3d. On the procedure: (§1) To determine if these effects would translate to increased sensitivity to chemotherapy, both sets of PDOs were treated with ISX9 for 5d, followed by doxorubicin for 3d. […] FIG. 8P and FIG. 8Q depicts results of tests showing that PIM-025 PDOs and PA-14-13 PDOs, respectively, pre-treated with ISX9 acquire increased sensitivity to doxorubicin.

Data set [3] has as its system PA-14-13 PDOs. The description is as above. It counts as cell-based. Particulars: pre-treatment 5d, then doxorubicin 3d. On the procedure: as §1
For a further data set, the system named is MDA-MB-231. Nature of the data set: B-Catenin localization to cell-cell junctions. Type of data set: cell-based. The note with it: 48 hours, 2D-treated cells.
In data set [4] the test system is PIM-025 PDOs. Kind of data set: western blot of E-Cadherin and Vimentin in PDOs. It counts as cell-based. The note with it: 6 days. From the text: (§2) FIG. 8N depicts a western blot analysis of E-Cadherin and Vimentin in PIM-025 PDOs treated with vehicle or ISX9 for 6 days. FIG. 8O depicts a western blot analysis of E-Cadherin and Vimentin in PA-14-13 PDOs treated with vehicle or ISX9 for 6 days.

The test system of data set [5] is PA-14-13 PDOs. Nature of the data set: western blot of E-Cadherin and Vimentin in PDOs. It counts as cell-based. The note with it: 6 days.
Description: as §2
For orientation: Immunoblotting shows a protein as a band on a membrane.

Data set [6] has as its system PA-14-13 PDOs. Nature of the data set: RT-qPCR of CD24 and CDH1 expression in PDOs. Particulars: 20 μM, 48 h. Type of data set: cell-based. As to the method: (§3) As a first step towards assessing the efficacy of ISX9 to differentiate patient-derived tumor cells, PDOs from the PIM025 (“hybrid epithelial” EMT status) and PA14-13 (“hybrid mesenchymal” EMT status) TNBC PDX tumors were produced and treated with 20 μM ISX9 for 48 h. […] FIG. 8D and FIG. 8E depict RT-qPCR of CD24 and CDH1 expression in PIM025 PDOs and PA-14-13 PDOs, respectively.
In general terms: In qPCR the cycle at which signal appears reflects the starting amount.

A further data set concerns PIM025 PDOs. Nature of the data set: RT-qPCR of CD24 and CDH1 expression in PDOs. Type of data set: cell-based. Particulars: 20 μM, 48 h. As to the method:
as §3

For data set [7], the system named is MDAs and MDA-231-BrM2 (TNBC), Py8119 (Breast Cancer), HT-1080 (fibrosarcoma), Sk-HEP-1 (liver cancer), and R40P (PDAC) cells. Nature of the data set: phenotype screen for anti-invasive activity in the HD Col1 model system. It counts as cell-based. Particulars: HD Col1, 7 days of culture; all six cell lines. From the text:
In this example, it was explored whether isoxazole derivatives could similarly induce differentiation of CSCs occupying the clinically relevant notch-activated state conferred by the HD Col1 model system of Example 1 (Table 1, FIG. 1). […] FIG. 2 includes brightfield microscopy images of cancer cell lines at 7 days of culture in HD Col1 treated with vehicle or ISX9 (scale bar=250 μm).

In data set [8] the test system is MDAs. Kind of data set: RT-qPCR of CD24 expression in MDAs, 7 days. Type of data set: cell-based. Particulars: after 7 days, population level. From the text: To further assess differentiation status, RT-PCR and flow cytometry (FC) was used to quantify expression of the CSC stemness biomarker signature CD44^+/CD24^− in MDAs. At the population level, MDAs increased CD24 mRNA expression ˜14-fold with ISX9 treatment after 7 days (FIG. 3E). FIG. 3E depicts RT-qPCR of CD24 expression in MD As treated with vehicle or ISX9. […] (FIG. 3F, FIG. 3G). FIG. 3F and FIG. 3G depicts flow cytometry analysis of MDAs treated with vehicle or ISX9.

The conditions of data set [9]: once daily 16 mg/kg ip for several weeks, cited from earlier work.
Another data set has as its system LL/2 lung cancer cells. Nature of the data set: western blot of EMT transcription factor TWIST1. Type of data set: cell-based. The note with it: HD Col1, 7 days. The source says: FIG. 4E depicts a western blot analysis of EMT transcription factor TWIST1 in LL/2 lung cancer cells treated with vehicle or ISX9 for 7 days in 2D TC or HD Col1.
Another data set relates to Notch1. Kind of data set: immunofluorescence staining of cleaved intracellular domain of Notch1 in MDAs. It counts as cell-based. The note with it: vs vehicle, even in 2D culture. From the text:
FIG. 3B depicts immunofluorescence staining of cell nuclei and cleaved intracellular domain of Notch1 in vehicle and Isx9 treated MDAs.

For another data set, the system named is MDA-MB-231 cells. Kind of data set: western blot of acetylation of histones H3 and H4. Type of data set: cell-based. Particulars: 2D- and 3D-treated cells, 24 hours. The source says: Also identified was the fact that a similar increase in acetylation was found in patient-derived organoid models. […] Acetylation and deactylation of histones H3 and H4 are typically orchestrated by Histone Acetyltransferases (HATs), including the several HAT subfamilies, as well as HDACs (see, e.g., Marmorstein, R. et al. Cold Spring Harb. Perspect. Biol. 6, a018762 (2014)). Not wishing to be bound by any particular theory, Isx9 may bind directly to HATs and/or HDACs in order to activate histone acetylation and drive induction of MET and/or CSC differentiation.

A further data set deals with MDA-MB-468. Kind of data set: CD24 mRNA expression in 2D for 48h. Type of data set: cell-based. As to the method: (§4) FIG. 3H depicts relative CD24 mRNA expression. CD24 expression was an early indicator of response to ISX9 in 2D across several TNBC cell lines. Treatment screening of several different TNBC cell lines with ISX9 in 2D for 48h yielded four responders, as determined by CD24 mRNA expression (FIG. 3H).

The next data set deals with SUM149. Kind of data set: CD24 mRNA expression in 2D for 48h. It counts as cell-based. On the procedure:
as §4

For the next data set, the system named is BT-549. Kind of data set: CD24 mRNA expression in 2D for 48h. Type of data set: cell-based. As to the method: as §4
Another data set concerns MDA-MB-436. Nature of the data set: CD24 mRNA expression in 2D for 48h. It counts as cell-based. On the procedure: as §4
The test system of data set [10] is MDAs. Nature of the data set: chemo-susceptibility to doxorubicin after pre-treatment, MTS assay. It counts as cell-based. Particulars: 7d pre-treatment in HD Col1, then chemotherapy 3d; normalized to vehicle control. On the procedure: To determine whether ISX9 could be used in a similar therapeutic function, MDAs and R40P cells were treated with vehicle or ISX9 for 7d in HD Col1, followed by chemotherapy for 3d and MTS assay to quantify viable cells.
For orientation: Tetrazolium dyes change colour on reduction, which living cells bring about.

Molecules are shown by their SMILES. “Also recorded” adds a separate entry of the source.

In the case of `O=C(NC1CC1)c1cc(-c2cccs2)on1` [ISX9, Isoxazole 9], the “detection in heart tissue” value in data set [1] (ip injection) is on record as “detected”. In addition, in data set [1] (single bolus ip injection), the “terminal half-life in plasma” value is < 15 min. For the same compound, the entries for the “increase in sensitivity to doxorubicin” value in the data set on PIM-025 PDOs [2] and with PA-14-13 PDOs [3] were 2.9 fold and 85.8 fold, respectively. In addition, the “B-Catenin localization to cell-cell junctions” value in the data set on MDA-MB-231 is recorded as “significant increase in B-Catenin localization”. For the same compound, the “Vimentin expression (WB)” value in the data set with PIM-025 PDOs [4] and in the data set with PA-14-13 PDOs [5] was “no observed differences to Vimentin expression” each time. In addition, in the data set on PA-14-13 PDOs [6], the “upregulation of CD24” value is ~1,080 fold. Further, in the data set on PA-14-13 PDOs [6], the “upregulation of CDH1” value is reported as ~41 fold. In the data set with PIM025 PDOs, the “CDH1 mRNA expression” value was “slight increase”. Also, the “upregulation of CD24 mRNA transcription” value with PIM025 PDOs is on record as 1.5 fold. In addition, the invasive capability entry in data set [7] is “significant abrogation of the invasive capability”. For the same compound, in the data set with MDAs [8], the “increase of CD24 mRNA expression” value is on record as ~14 fold. Also, the “tolerability (signs or symptoms)” value in [9] (16 mg/kg) is “well-tolerated; also recorded: no signs or symptoms of lethargy, weight loss or decreased appetite”. In addition, the “serum biochemistry and hematology profiles” value in data set [9] is listed as “normal”. For the same compound, in the data set on LL/2 lung cancer cells, the “TWIST1 protein expression (WB)” value is recorded as “reduced TWIST1 protein expression”. The “localization of activated Notch1 (cleaved intracellular domain)” value in the data set on Notch1 was “strong nucleolar localization”. Also, in the data set on MDA-MB-231 cells, the “acetylation of histones H3 and H4” value is “significant increase in acetylation of histones H3 and H4”. Moreover, the “CD24 mRNA expression (FC)” value with MDA-MB-468 was ~0.6; in the data set with SUM149, ~2.7; in the data set on BT-549, ~12.6; in the data set with MDA-MB-436, ~7.1. Besides, in the data set with MDAs [10], the “decrease in IC50 to doxorubicin” value was ~14.5 fold.
